Measured values reported in BindingDB's records for doi:10.1021/jm00006a013 (Universit&#224, 1995).

Target: sigma receptor (Cavia porcellus)
Experiment: In vitro binding affinity measured on sigma opioid receptor using [3H]DTG as radioligand

SMILES | IC50
COc1ccccc1N1CCN(CC/C=C2\CCCc3ccccc32)CC1 [1-{3-[3,4-Dihydro-2H-naphthalen-(1E)-ylidene]-propyl}-4-(2-methoxy-phenyl)-piperazine] | 55 nM
COc1ccc2c(c1)C(CCCN1CCN(c3ccccn3)CC1)=CCC2 [1-[3-(7-Methoxy-3,4-dihydro-naphthalen-1-yl)-propyl]-4-pyridin-2-yl-piperazine] | 246 nM
COc1ccc2c(c1)C(CCCN1CCN(c3ccccn3)CC1)CCC2 (stereo unspecified) [1-[3-(7-Methoxy-1,2,3,4-tetrahydro-naphthalen-1-yl)-propyl]-4-pyridin-2-yl-piperazine] | 125 nM
COc1ccc2c(c1)C(SCCN1CCN(c3ccccc3OC)CC1)CCC2 (stereo unspecified) [1-(2-Methoxy-phenyl)-4-[2-(7-methoxy-1,2,3,4-tetrahydro-naphthalen-1-ylsulfanyl)-ethyl]-piperazine] | 138 nM
COc1ccc2c(c1)C(CCCN1CCN(c3ccccc3OC)CC1)=CCC2 [1-[3-(7-Methoxy-3,4-dihydro-naphthalen-1-yl)-propyl]-4-(2-methoxy-phenyl)-piperazine] | 228 nM
COc1ccccc1N1CCN(CC/C=C2\CCCc3c(OC)cccc32)CC1 [1-{3-[5-Methoxy-3,4-dihydro-2H-naphthalen-(1E)-ylidene]-propyl}-4-(2-methoxy-phenyl)-piperazine] | 52.2 nM
